Assay results: PubChem BioAssay AID504328 (The Scripps Research Institute Molecular Screening Center, 2011)
Activity calls are given as the source filed them.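 How the source made its calls: active means EC50 at or below 10 µM; inactive means EC50 above 10 µM.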

Target: Caspase-3 (Homo sapiens) (UniProt P42574)
Assay: procaspase-3 activation potency of dual hits, dose response, counter-screen for dual procaspase-3/7 activator project, biochemical, absorbance, PC-3 D3A mutant (AID 504328)
Details: recombinant PC-3 D3A, Ac-DEVD-pNA absorbance 405 nm

Caspase-3 (Homo sapiens), sequence (P42574 whole entry D9A/D28A/D175A): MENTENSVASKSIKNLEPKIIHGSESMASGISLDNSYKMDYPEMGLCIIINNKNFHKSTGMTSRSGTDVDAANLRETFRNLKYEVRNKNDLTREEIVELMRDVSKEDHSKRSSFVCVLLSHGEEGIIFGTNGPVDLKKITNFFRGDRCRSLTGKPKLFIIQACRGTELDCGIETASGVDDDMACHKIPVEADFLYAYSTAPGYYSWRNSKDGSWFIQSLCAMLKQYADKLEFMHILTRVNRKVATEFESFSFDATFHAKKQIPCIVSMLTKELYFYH

CCOc1ccc(N=CC2=C(O)CC(c3ccco3)CC2=O)cc1 (stereo unspecified)
EC50: > 85.3 µM (inactive)
